The source of these data is publication PMC7498612, “A rationally designed bicyclic peptide remodels Aβ42 aggregation in vitro and reduces its toxicity in a worm model of Alzheimer’s disease” (Scientific Reports, 2020).

The target of one series is T1, Aβ42 monomers (Homo sapiens, UniProt P05067).
T1 construct: the 42-residue form of the amyloid β peptide (Aβ42)
Briefly: Bio-layer interferometry (BLI) binding of DesBP to sensor-coupled Aβ42 monomers. The note with it: DesBP 50 and 100 μM, 30 °C. As to the method:
To test for direct peptide-peptide interaction, biolayer interferometry (BLI) was performed on the Octet RED96 System (ForteBio, Menlo Park, USA). DesBP was used as interaction partner for sensor-coupled Aβ42. Coupled sensors were first dipped into ForteBio kinetics buffer (PBS, 0.1% BSA, 0.02% Tween20 and 0.05% sodium azide, pH 7.4) to establish a stable baseline, then into different concentrations of DesBP and finally in pure kinetics buffer again to monitor dissociation. Both association and dissociation processes were monitored at 30 °C over 50 and 200 s, respectively. In the data analysis, all curves were globally fit with a 1:1 binding model.
(In general: Biolayer interferometry detects binding as a change in optical thickness at a sensor tip.)

For another series, the system named is N2 worms. Briefly: C. elegans N2 control worms motility / fitness. It counts as in vivo. As to conditions: same concentration of DesBP (40 μM); compared to effect on Aβ worms. From the text:
We thus administered DesBP to Aβ worms at day 4 (D4) of adulthood, when Aβ42 aggregates are already formed, and paralysis is ongoing, and compared the resulting effects of the addition of DesBP to those observed in a control worm model, N2 (see “Materials and methods” section). […] On the other hand, the effects of the same concentration of DesBP to control N2 worms were negligible when compared to the effect observed on Aβ worms (Supplementary Fig. 12).
Media Standard conditions were used for the propagation of C. elegans. Briefly, the animals were synchronized by hypochlorite bleaching, hatched overnight in M9 (3 g/l KH2PO4, 6 g/l Na2HPO4, 5 g/l NaCl, […]) buffer, and subsequently cultured at 20 °C on nematode growth medium (NGM) (CaCl2 1 mM, MgSO4 1 mM, cholesterol 5 µg/ml, […] pH 6, Agar 17 g/L, NaCl 3 g/l, casein 7.5 g/l) plates seeded with the E. coli strain OP50. Saturated cultures of OP50 were grown by inoculating 50 mL of LB medium (tryptone 10 g/l, NaCl 10 g/l, yeast extract 5 g/l) with OP50 and incubating the culture for 16 h at 37 °C. NGM plates were seeded with bacteria by adding 350 µl of saturated OP50 to each plate and leaving the plates at 20 °C for 2–3 days. On day 3 after synchronization, the animals were placed on NGM plates containing 5-fluoro-2′deoxy-uridine (FUDR) (75 μM, unless stated otherwise) to inhibit the growth of offspring. […]

Series [1] has as its system islet amyloid polypeptide, Aβ and α-synuclein. As to conditions: cited from earlier work. The text has this:
In this study, we apply this design strategy to generate a bicyclic peptide capable of binding Aβ42 and of interfering with its aggregation process. The aggregation of Aβ42 is a complex process resulting from the combination of different microscopic steps and involving a variety of molecular species[35],[36]. […] Therefore, some therapeutic strategies aim at decreasing the concentrations of these oligomeric species by delaying or preventing their formatio ...

Another series has as its system Aβ42. Briefly: ThT fluorescence aggregation kinetics of Aβ42. The class given is biochemical. The note with it: ThT assay. On the procedure:
In order to investigate the effects of DesBP on the aggregation of Aβ42, we carried out in vitro aggregation assays using thioflavin T (ThT) as an amyloid-specific fluorescent probe[63],[64]. We monitored fibril formation for Aβ42 at a concentration of 2 µM in the absence and presence of a range of concentrations (0.25–16 fold excess) of DesBP at 37 °C under quiescent conditions, using a highly reproducible protocol previously described. We then validated our results by means of far-UV circular dichroism (CD) and atomic force microscopy (AFM).
Monomeric Aβ42 peptide solutions were prepared by dissolving the lyophilized peptide in 6 M GuHCl. A Superdex 75 10/300 GL column (GE Healthcare) was used to purify Aβ42 monomers from Aβ42 oligomers and salt with a flow rate of 0.5 ml/min, and eluted in 20 mM sodium phosphate buffer (pH 8) with 200 μM EDTA. By collecting the centres of the peaks, the monomeric Aβ42 concentrations were determined from the integrated peak area with ε280 = 1,495 L mol^−1 cm^−1. Aβ42 monomers were then diluted to the target concentration with buffer and 20 μM ThT was added from a 1 mM stock. […] Assays were carried out at 37 °C under quiescent conditions in a plate reader (Fluostar Optima; BMG Labtech). ThT fluorescence was measured through the bottom of the plate with 440 nm excitation and 480 nm emission filters, with five repeats per sample. […]

Where a SMILES comes first, the peptide text is derived from it.

In the case of `CC[C@H](C)[C@@H]1NC(=O)CNC(=O)[C@H](CC(C)C)NC(=O)[C@H](CCCCN)NC(=O)[C@@H](NC(=O)[C@H](C)NC(=O)[C@H](C)NC(=O)[C@@H](N)CCCNC(=N)N)CSCc2cc3cc(c2)CSC[C@H](NC(=O)[C@H](C)NC(=O)[C@H](CCCCN)NC1=O)C(=O)N[C@@H]([C@@H](C)O)C(=O)N[C@@H](CO)C(=O)N[C@@H](C(C)C)C(=O)N[C@@H](Cc1ccc(O)cc1)C(=O)N[C@@H](Cc1c[nH]cn1)C(=O)N[C@@H](C)C(=O)N[C@H](C(=O)NCC(=O)NCC(=O)N[C@@H](CCCCN)C(=O)N[C@@H](CCCNC(=N)N)C(=O)N[C@@H](CCCNC(=N)N)C(=O)O)CSC3` [DesBP] (HELM PEPTIDE1{R.A.A.C.K.L.G.I.K.A.C.T.S.V.Y.H.A.C.G.G.K.R.R}|CHEM1{[c1c(C[*:1])cc(C[*:3])cc1C[*:2]]}$PEPTIDE1,CHEM1,4:R3-1:R1|PEPTIDE1,CHEM1,11:R3-1:R2|PEPTIDE1,CHEM1,18:R3-1:R3$$$V2.0), on Aβ42 monomers (pH 7.4, single-exponential fit, read-out: dissociation rate kd), the koff was determined as 0.06 ± 0.002 s⁻¹. Moreover, the equilibrium dissociation constant (Kd) (as a rule, the constant that tells how readily two partners part at equilibrium) on Aβ42 monomers (Octet RED96, kinetics buffer PBS, 0.1% BSA, 0.02% Tween20, pH 7.4, association 50 s, dissociation 200 s, global fit 1:1 binding model, read-out: dissociation constant (KD)) came out at 640 ± 260 µM. The “effect on control N2 worms” value with N2 worms was “negligible”.

As to `O=C(O[C@@H]1Cc2c(O)cc(O)cc2O[C@@H]1c1cc(O)c(O)c(O)c1)c1cc(O)c(O)c(O)c1` [EGCG, epigallocatechin gallate], the “modulation of aggregation process” value in series [1] is “redirecting them towards the formation of non-toxic aggregates”.

As for `Cc1cc(C)cc(C)c1` [TMB, 1,3,5-trimethylbenzene], the “effect on Aβ42 aggregation (control compounds)” value in the series on Aβ42 (Supplementary Fig. 7) is “slightly delayed the nucleation step of Aβ42 aggregation”. Also, the “magnitude of ThT fluorescence (control compound)” value in the series with Aβ42 (Supplementary Fig. 7b) is “did not show significant changes on the magnitude of ThT fluorescence”.

Turning to `CC(C)[C@@H](CC[C@@H](C)[C@H]1CC[C@H]2[C@@H]3[C@H](O)C[C@H]4C[C@@H](NCCCNCCCCNCCCN)CC[C@]4(C)[C@H]3CC[C@]12C)OS(=O)(=O)O` [trodusquemine], in series [1], the “modulation of aggregation process” value is reported as “redirecting them towards the formation of non-toxic aggregates”.
